From ChEMBL document CHEMBL1152170 (Bioorg Med Chem Lett, 2008) come the findings set out here.

Some results are limits rather than exact numbers.

Data set [1] in a line: Permeability across human Caco-2 cells. The class given is ADME, cell-based. The settings on record: read-out: permeability. For orientation: Caco-2 monolayers are a common model of the intestinal barrier.
The nature of data set [2]: Stability in rabbit liver microsome after 1 hr. The settings on record: liver microsomes, read-out: Stability. Format: ADME, Oryctolagus cuniculus.

As for `COc1ccc(CNc2ncnc3c(CCO)c(OC)c(NC(C)=O)cc23)cc1Cl`, the Papp in data set [1] is 17.3 ×10⁻⁶ cm/s. On to `CCCc1c(OC)c(NC(=O)C(F)(F)F)cc2c(NCc3ccc(OC)c(Cl)c3)ncnc12`, for which the remaining at 1 h in data set [2] is above 80%. For the compound `CCC(=O)Nc1cc2c(NCc3ccc(OC)c(Cl)c3)ncnc2c(CCO)c1OC`, the remaining at 1 h in data set [2] is above 80%. The Papp in data set [1] was determined as 46.9 ×10⁻⁶ cm/s.
